Experiments:
Type in all cases: functional
Klebsiella pneumoniae = test: Antibacterial activity against Klebsiella pneumoniae assessed as zone of inhibition after 24 to 48 hrs by well diffusion method
Streptococcus pyogenes = test: Antibacterial activity against Streptococcus pyogenes assessed as zone of inhibition after 24 to 48 hrs by well diffusion method
[1] = system: Staphylococcus epidermidis; test: Antibacterial activity against Staphylococcus epidermidis assessed as zone of inhibition after 24 to 48 hrs by well diffusion method
Staphylococcus aureus = test: Antibacterial activity against Staphylococcus aureus assessed as zone of inhibition after 24 to 48 hrs by well diffusion method
Serratia marcescens = test: Antibacterial activity against Serratia marcescens assessed as zone of inhibition after 24 to 48 hrs by well diffusion method
Pseudomonas aeruginosa = test: Antibacterial activity against Pseudomonas aeruginosa assessed as zone of inhibition after 24 to 48 hrs by well diffusion method
Escherichia coli = test: Antibacterial activity against Escherichia coli assessed as zone of inhibition after 24 to 48 hrs by well diffusion method
Leishmania major [2] = test: Antileishmanial activity against Leishmania major promastigotes at 100 uM after 72 hrs by MTT assay relative to control
Leishmania major [3] = test: Antileishmanial activity against Leishmania major promastigotes at 10 uM after 72 hrs by MTT assay relative to control
Leishmania major [4] = test: Antileishmanial activity against Leishmania major promastigotes at 1 uM after 72 hrs by MTT assay relative to control
Leishmania major [5] = test: Antileishmanial activity against Leishmania major promastigotes at 0.1 uM after 72 hrs by MTT assay relative to control

| Structure (SMILES) | inhibition zone (IZ) (Klebsiella pneumoniae) [mm] | inhibition zone (IZ) (Streptococcus pyogenes) [mm] | inhibition zone (IZ) [1] [mm] | inhibition zone (IZ) (Staphylococcus aureus) [mm] | inhibition zone (IZ) (Serratia marcescens) [mm] | inhibition zone (IZ) (Pseudomonas aeruginosa) [mm] | inhibition zone (IZ) (Escherichia coli) [mm] | Activity (Leishmania major [2]) [%] | Activity (Leishmania major [3]) [%] | Activity (Leishmania major [4]) [%] | Activity (Leishmania major [5]) [%] |
| --- | --- | --- | --- | --- | --- | --- | --- | --- | --- | --- | --- |
| CC1(C)S[C@@H]2[C@H](NC(=O)[C@H](N)c3ccccc3)C(=O)N2[C@H]1C(=O)O [AMPICILLIN] | 6 | 0 | 0 | 0 | 8 | 0 | 0 | – | – | – | – |
| CC1(C)S[C@@H]2[C@H](NC(=O)Cc3ccccc3)C(=O)N2[C@H]1C(=O)O [PENICILLIN G] | 0 | 0 | 0 | 0 | 8 | 6 | 0 | – | – | – | – |
| CC1(C)S[C@@H]2[C@H](NC(=O)[C@H](N)c3ccc(O)cc3)C(=O)N2[C@H]1C(=O)O [AMOXICILLIN] | 6 | 0 | 2 | 0 | 6 | 6 | 0 | – | – | – | – |
| CN(C)[C@@H]1C(O)=C(C(N)=O)C(=O)[C@@]2(O)C(O)=C3C(=O)c4c(O)cccc4[C@@](C)(O)[C@H]3C[C@@H]12 [TETRACYCLINE] | 14 | 0 | 10 | 0 | 0 | 6 | 2 | – | – | – | – |
| C[C@@H]1[C@H](O)[C@@H](C)/C=C/C=C/C=C/C=C/C=C/C=C/C=C/[C@H](O[C@@H]2O[C@H](C)[C@@H](O)[C@H](N)[C@@H]2O)C[C@@H]2O[C@](O)(C[C@@H](O)C[C@@H](O)[C@H](O)CC[C@@H](O)C[C@@H](O)CC(=O)O[C@H]1C)C[C@H](O)[C@H]2C(=O)O [AMPHOTERICIN B] | – | – | – | – | – | – | – | 79.8 | 76.3 | 74.8 | 69.9 |

Reference: ChEMBL document CHEMBL4138175, “Newly designed organotin(IV) carboxylates with peptide linkage: Synthesis, structural elucidation, physicochemical characterizations and pharmacological investigations” (Eur J Med Chem, 2018)
